The text below walks through data of US5235045A, “Non-azo naphthalimide dyes” (priority 1992, dated 1993).

Where two headings read alike, the source gives them in different places.

Test [1] has as its system F-actin polymers of G-actin. The test can be described thus: Protein crosslinking with DiEd6Br: F-actin. Type of test: biochemical. The note with it: 40.0 μM, 400 J/cm^2.
In test [2] the test system is H9 cells. Briefly: Dye-mediated light kill of H9 cells (trypan blue). Type of test: cell-based. The note with it: Homo sapiens, read-out: Percent Viability. As for the experimental part: Photoinduced killing of H9 cells with Compound 1b as the mediator of photochemical toxicity were carried out according to the following protocol:
Compound 1b was added to the H9 cells (5×10^5 /ml) in medium or 100% human plasma to give dye concentrations of 0, 25 and 100 μM (1 control, 2 duplicates of both non-azo dye samples). Two 2-ml aliquots of each of the duplicated dye samples was irradiated with 10J/cm^2 total energy of 450±35 nm wavelength light in a sealed 3-ml test tube. Immediately after irradiation, the cells were centrifuged at 450×g for 10 minutes, and the pellets resuspended in the original volume of fresh RPMI-1640+10% FCS+gentamycin. The cell suspensions were transferred to a 12-well TC plate and placed in a 37° C. 5% CO2 incubator. Cell viability counts (trypan blue) were carried out at 4, 24, 48, and 72 hours post irradiation. The results of these experiments are summarized in Tables 7 (medium) and 8 (100% human plasma).
Photoinduced killing of H9 cells with Compound VII as the mediator of photochemical toxicity were carried out in 10% FCS medium according to the same general protocol using concentrations of the dye at 0, 5, 25 and 100 μM., and irradiating at 420±5 nm at 10J/cm^2 total energy.

The mark [3] stands for this setting: H9, 4 h, no hν, 10% FCS medium, 4 hours.
[4] abbreviates: H9, 4 h, no hν, 100% human plasma, 4 hours.
The mark [5] stands for this setting: H9, 24 h, no hν, 10% FCS medium, 24 hours.
The mark [6] stands for this setting: H9, 24 h, no hν, 100% human plasma, 24 hours.
[7] abbreviates: H9, 48 h, no hν, 10% FCS medium, 48 hours.
[8] abbreviates: H9, 48 h, no hν, 100% human plasma, 48 hours.
Where [9] appears, read: H9, 72 h, no hν, 10% FCS medium, 72 hours.
Where [10] appears, read: H9, 72 h, no hν, 100% human plasma, 72 hours.
Where [11] appears, read: H9, light or radiation study, 4 h, hν 10J/cm^2, 450±35 nm, 10% FCS medium, 4 hours.
Setting [12] is: H9, light or radiation study, 4 h, hν 10J/cm^2, 450±35 nm, 100% human plasma, 4 hours.
Setting [13] is: H9, light or radiation study, 24 h, hν 10J/cm^2, 450±35 nm, 10% FCS medium, 24 hours.
Where [14] appears, read: H9, light or radiation study, 24 h, hν 10J/cm^2, 450±35 nm, 100% human plasma, 24 hours.
Setting [15] is: H9, light or radiation study, 48 h, hν 10J/cm^2, 450±35 nm, 10% FCS medium, 48 hours.
Setting [16] is: H9, light or radiation study, 48 h, hν 10J/cm^2, 450±35 nm, 100% human plasma, 48 hours.
The mark [17] stands for this setting: H9, light or radiation study, 72 h, hν 10J/cm^2, 450±35 nm, 10% FCS medium, 72 hours.
Setting [18] is: H9, light or radiation study, 72 h, hν 10J/cm^2, 450±35 nm, 100% human plasma, 72 hours.

As to `CCCCCCN1C(=O)c2cccc3c(NCCNC(=O)CCCCC(=O)NCCNc4c(Br)cc5c6c(cccc46)C(=O)N(CCCCCC)C5=O)c(Br)cc(c23)C1=O` [Compound XLIV], the heavier bands entry in test [1] is listed as “many ill separated heavier bands merging together near”. Also, the figures for the “Inferred Crosslinked Species” value in test [1] (first species) and in test [1] (second species) were 2 G-actin and 3 G-actin, respectively. The “Inferred Crosslinked Species, Gel mw” value in test [1] (2 G-actin monomers) is 94 kD; in test [1] (3 G-actin monomers) it was 141 kD.

Regarding `CCCCCCNc1ccc2c3c(cccc13)C(=O)N(CCCCCC)C2=O` [Compound 1b, 4-(hexyl)amino-N-hexyl-1,8-naphthalimide], the viability at 25 µM is 96.9% in test [2] (setting [3]); 97.2% in test [2] (setting [4]); 94.8% in test [2] (setting [5]); 93.4% in test [2] (setting [6]); 90.5% in test [2] (setting [7]); 86.4% in test [2] (setting [8]). The viability at 25 µM in test [2] (setting [9]) was determined as 91.4%; in test [2] (setting [10]), 85%; in test [2] (setting [11]), 62.8%; in test [2] (setting [12]), 97.9%; in test [2] (setting [13]), 8.4%; in test [2] (setting [14]), 94.4%. Moreover, the viability at 25 µM in test [2] (setting [15]) worked out at 10%; in test [2] (setting [16]), 86.5%; in test [2] (setting [17]), 30.6%; in test [2] (setting [18]) it was 90.2%. The viability at 100 µM in test [2] (setting [3]) was 94.6%; in test [2] (setting [4]), 99.2%; in test [2] (setting [5]), 94.6%; in test [2] (setting [6]) it was 94.3%; in test [2] (setting [7]), 91.3%; in test [2] (setting [8]), 90.7%. Also, the viability at 100 µM amounted to 85.1% in test [2] (setting [9]); 87.4% in test [2] (setting [10]); 87.2% in test [2] (setting [11]); 97.4% in test [2] (setting [12]); 52% in test [2] (setting [13]); 92.4% in test [2] (setting [14]). Further, the viability at 100 µM in test [2] (setting [15]) came out at 64.8%; in test [2] (setting [16]), 92.6%; in test [2] (setting [17]), 71.4%; in test [2] (setting [18]), 88.2%.
